The results in this text go back to PubChem BioAssay (NCI).

Several values for one entry are separate records, joined by “and”; a condition that tells them apart may be missing. Equal entries are not always repeated.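 96-well plates; 48 h exposure; 5 concentrations. Endpoints by linear interpolation between flanking doses. Not reached: highest tested concentration assigned. GI50 is the concentration that inhibits growth by half. TGI: concentration producing complete growth inhibition.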 Where only a bound is given, the exact number is not on record here.

Common to all, as to assay: NCI tumour cell line growth inhibition, 48 h
The test system of experiment [1] is DMS 273 small cell lung.
Experiment [2] has as its system DMS 114 small cell lung.
The test system of experiment [3] is DLD-1 colon.
Experiment [4] deals with RXF-631 renal.
The test system of experiment [5] is XF 498 CNS.
Experiment [6] has as its system M19-MEL melanoma.
For experiment [7], the system named is HOP-18 NSCLC.
Experiment [8] concerns LXFL 529 NSCLC.
Experiment [9] concerns SNB-78 CNS.

As to `COc1cc2c(c(OC)c1OC)-c1ccc(SC)c(=O)cc1[C@@H](NC(=O)c1ccc(OC(C)=O)cc1)CC2`, the TGI in [1] is above 100 µM; in experiment [2] it was 0.0336 µM; in experiment [3], 28.8 µM; in experiment [4], 18.1 µM; in experiment [5], 0.0597 µM; in experiment [6] it was above 100 µM. The GI50 in [2] is 0.0144 µM.
Turning to `S=c1[nH]c(=S)c2sc(=S)n(-c3ccccc3)c2[nH]1`, the TGI in [1], in [2], in experiment [3], in experiment [7], in experiment [5] and in [6] was above 100 µM throughout. The TGI in [8] and in [9] was above 100 µM each time.
As for `COc1ccc2c([nH]c3cc(O)c(C)cc32)c1C=O`, the TGI in [1], in experiment [2], in experiment [3], in experiment [5], in experiment [6] and in [8] was above 25 µM in each case. The same molecule had a TGI in experiment [9] above 25 µM.
For the molecule `COC(=O)/C=C(C)/C=C/c1cc(C(C)=O)c(C)o1`, the TGI in [2], in [3], in experiment [7], in experiment [5], in experiment [8] and in experiment [9] was above 100 µM each time.
Consider `COC1/C=C\C=C(/C)C(=O)Nc2cc3nc4ccc(Br)cc4oc-3c(c2=O)CC(C)CC(OC)C(O)C(C)/C=C(\C)C1OC(N)=O` (stereo not given), for which the TGI in experiment [1] turned out to be 4.19 µM; in experiment [2], 5.34 µM; in [3], 8.29 µM; in [7] it was 17.3 µM; in [5] it was 0.466 µM; in experiment [6] it was 2.26 µM. The TGI was found to be 9.42 µM in [8] and 30 µM in experiment [9].
Consider `CCCCCCCCCCC(C)CCCCCCC(=O)OCC(COP(=O)([O-])OCC[N+](C)(C)C)OC(=O)CCCCCCC(C)CCCCCCCCCC` (stereo not given), for which the TGI in [1], in experiment [2], in experiment [3], in experiment [7], in [4] and in [6] was above 100 µM in each case. For the same molecule, the TGI in experiment [8] and in experiment [9] was above 100 µM each time.
Regarding `CCOC(=O)/C(=C\c1ccc(OCc2ccccc2)c(OC)c1)C(=O)c1ccccc1`, the TGI in experiment [2] came out at 41.4 µM; in [5], 32.3 µM; in experiment [6], 50 µM; in [9], 76.8 µM.
For the molecule `Cc1nc2c(=O)[nH]c(=O)n(C)c2[nH]c1=O`, the TGI in experiment [1], in experiment [3], in experiment [6] and in [8] was above 100 µM in each case.
Take `S=c1nc(Oc2ccc(Cl)c(Cl)c2)[nH]c(=S)[nH]1`: the TGI in experiment [1] was 50 µM; in [2], 48.2 µM; in [3], 88.4 µM; in [7] it was above 100 µM; in experiment [4], 32.8 µM; in [5], 65.6 µM. The values for the TGI in experiment [6], in experiment [8] and in experiment [9] were 56.5 µM, above 100 µM and above 100 µM, respectively.
`CC(=O)NC1=C(Nc2ccc(C)cc2)C(=O)c2ccccc2C1=O`: the TGI in experiment [1] is 61 µM; in [2] it was 38.4 µM; in experiment [3] it was above 75 µM; in experiment [7], 28.5 µM; in experiment [5], 73.1 µM; in experiment [6] it was 17.5 µM. In addition, the TGI in [8] and in [9] was above 75 µM each time.
Turning to `c1nc2cscc2c2cscc12`, the TGI in experiment [1], in [2], in experiment [5], in experiment [6], in experiment [8] and in experiment [9] was above 100 µM in each case.
Regarding `CC1Cc2c(N)nc(NN)nc2NC1=O` (stereo not given), the TGI in experiment [1], in experiment [2], in experiment [3], in experiment [7], in [5] and in [6] was above 100 µM throughout.
In the case of `C=CC[C@H]1C[C@@]2(C)OC[C@H](C(C)C)N2C1=O`, the TGI in [1], in experiment [7], in experiment [5], in [6] and in experiment [9] was above 100 µM each time.
For the molecule `Cc1cccc(C)c1NC(=O)CCCC(=O)CC(=O)/C=C/c1ccccc1`, the TGI in experiment [1], in experiment [2], in experiment [3], in experiment [7], in experiment [4] and in experiment [5] was above 100 µM throughout. Further, the TGI in experiment [6], in experiment [8] and in experiment [9] was above 100 µM in each case.
Regarding `CC(=O)[CH-]C(=O)c1ccccc1.CC(=O)[CH-]C(=O)c1ccccc1.CC(=O)[CH-]C(=O)c1ccccc1.[Tl+3]`, the GI50 is 22.2 µM in [3], above 100 µM in experiment [7], 38 µM in [6] and 56.2 µM in experiment [8]. The TGI in experiment [3], in experiment [7], in experiment [6] and in experiment [8] was above 100 µM throughout.
In the case of `Cc1cc(O)c(C(=O)CC2(O)C(=O)Nc3c(Cl)cc(Cl)cc32)c(=O)o1` (stereo not given), the TGI in [1], in experiment [3], in experiment [7], in experiment [4], in [5] and in experiment [6] was above 100 µM in each case. Moreover, the TGI in experiment [8] and in experiment [9] was above 100 µM in each case.
`OCC(O)C(O)C(O)C1SC(c2ccccc2)=NN1c1ccccc1` (stereo not given): the TGI in [1] was above 100 µM; in experiment [2], above 100 µM; in [3] it was above 100 µM; in experiment [7] it was above 100 µM; in [4] it was above 100 µM; in experiment [5], above 78.1 µM. Further, the values for the TGI in [6], in [8] and in experiment [9] were above 100 µM, above 100 µM and above 96.4 µM, respectively.
Consider `N/N=C(\CC1OC(=O)c2ccccc21)c1ccco1` (stereo not given), for which the TGI in [1] was above 100 µM; in experiment [2], above 100 µM; in [3], above 100 µM; in experiment [7] it was 0.343 µM; in [6], above 100 µM; in experiment [8] it was above 100 µM.
With `CC(=O)OCC1OC(OC2CC3C(C)(C)C(OC(C)=O)CC[C@]3(C)C3CCC45CC4(CC[C@H]5C(C)CC(O)[C@@H](O)C(C)(C)O)[C@]23C)C(O)C(O)C1O` (stereo not given in full), the TGI in experiment [1] was 13.8 µM and 20.3 µM; in experiment [3], 13.7 µM and 23.2 µM; in experiment [7], 15 µM and 17.3 µM; in experiment [5], 33.9 µM; in [6], 13.7 µM and 12.7 µM; in experiment [8], 11.3 µM and 16.2 µM. Further, the GI50 in experiment [3] is 10.4 µM; in [7] it was 5.43 µM; in experiment [6], 3.18 µM; in experiment [8], 4.65 µM.
Take `Clc1ccc(-n2nnc(C3=NCCCN3)c2-c2ccccc2)cc1`: the TGI in experiment [1], in experiment [2], in [3], in experiment [7], in [5] and in experiment [6] was above 100 µM each time. In addition, the TGI in [8] and in [9] was above 100 µM in each case.
For `COc1ccc(/C=C\c2cc(OC)c(OC)c(OC)c2)cc1OC(=O)C(N)CCC(=O)O` (stereo not given), the TGI in [3] is above 100 µM; in experiment [5] it was 0.0491 µM; in experiment [6], 67.3 µM; in [9] it was 46.4 µM.
For `O=[N+]([O-])c1ccc(Sc2c3ccccc3nc3ccccc23)cc1`, the TGI in [3], in experiment [7], in [4], in experiment [5], in experiment [6] and in [8] was above 100 µM throughout. The same molecule gave a TGI in [9] above 100 µM.
Regarding `C1CNCCNCCNCCN1`, the TGI in [1], in experiment [2], in [3], in experiment [7], in experiment [6] and in experiment [8] was above 100 µM each time. In [9], this molecule gave a TGI above 100 µM.
With `COc1ccc(C(=O)C(c2ccc(OC)cc2)C2(O)C(=O)Nc3c(C)cc(Cl)cc32)cc1` (stereo not given), the TGI was above 100 µM in experiment [1]; above 100 µM in [3]; above 100 µM in experiment [4]; 44.2 µM in [6]; above 100 µM in experiment [8]; above 100 µM in [9].
For `CC(C)=CC(=O)Oc1ccc([N+](=O)[O-])cc1`, the TGI in [1], in experiment [2], in experiment [3], in [7], in [5] and in experiment [6] was above 100 µM each time. In addition, the TGI in experiment [8] and in experiment [9] was above 100 µM each time.
For the molecule `N#CCc1ccc(C(C#N)/C(CCCC(=O)Nc2cccc([N+](=O)[O-])c2)=N\NC(=O)NN)cc1` (stereo not given), the TGI in [1], in experiment [2], in [3], in [7], in experiment [6] and in experiment [8] was above 100 µM in each case. This molecule also had a TGI in experiment [9] above 100 µM.
As to `CC(=O)OCSc1ncnc2c1ncn2CN1CCOCC1`, the TGI in experiment [1], in experiment [2], in [3], in experiment [7], in experiment [6] and in experiment [8] was above 100 µM throughout. For the same molecule, the TGI in experiment [9] was above 100 µM.
